± gives the standard deviation of the averaged measurements.
Key:
Experiment in all cases: level (log10 ratio to DMSO vehicle control); higher = higher biomarker level / cell amount than vehicle control
Conditions in all cases: in DMSO
[1] = compound: FC(F)(F)C(F)(F)CNCC(F)(F)C(F)(F)F [Bis(1H,1H-perfluoropropyl)amine]
Protocol: (§1)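 BioMAP Diversity Plus panel of 12 human primary cell co-culture systems (3C, 4H, LPS, SAg, BT, BF4T, BE3C, CASM3C, HDF3CGF, KF3CT, MyoF, Mphg). Compounds were added 1 h before stimulation and left for 24 h (MyoF 48 h; BT 72 h for soluble read-outs or 6 d for IgG). Biomarkers were read by ELISA, cytotoxicity by SRB, PBMC viability and proliferation by Alamar Blue. Each well value was divided by the mean of 8 DMSO control wells on the same plate and log10 transformed; duplicate blinded samples were tested at 4 concentrations.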

[2] = compound: NC(=O)C(F)(F)C(F)(F)C(F)(F)C(F)(F)F [Nonafluoropentanamide]
Protocol: as §1

[3] = compound: O=C(O)C(F)(F)C(F)(F)C(F)(F)C(F)(F)C(F)(F)C(F)(F)C(F)(F)C(F)(F)C(F)(F)C(F)F [11-H-Perfluoroundecanoic acid]
Protocol: as §1

[4] = compound: O=S(=O)(Cl)C(F)(F)C(F)(F)C(F)(F)C(F)(F)C(F)(F)C(F)(F)C(F)(F)C(F)(F)F [Perfluoro-1-octanesulfonyl chloride]
Protocol: as §1

[5] = compound: O=S(=O)(F)C(F)(F)C(F)(F)C(F)(F)C(F)(F)C(F)(F)C(F)(F)C(F)(F)C(F)(F)F [Perfluorooctanesulfonyl fluoride]
Protocol: as §1

[6] = compound: O=S(=O)(O)C(F)(F)C(F)(F)C(F)(F)C(F)(F)C(F)(F)C(F)(F)C(F)(F)C(F)(F)C(F)(F)C(F)(F)F [Sodium perfluorodecanesulfonate]
Protocol: as §1

| Test System | level (log10) ([1]; 6700 nM) | level (log10) ([1]; 20000 nM) | level (log10) ([1]; 60000 nM) | level (log10) ([2]; 6700 nM) | level (log10) ([2]; 20000 nM) | level (log10) ([2]; 60000 nM) | level (log10) ([3]; 6700 nM) | level (log10) ([3]; 20000 nM) | level (log10) ([4]; 6700 nM) | level (log10) ([4]; 20000 nM) | level (log10) ([4]; 60000 nM) | level (log10) ([5]; 6700 nM) | level (log10) ([5]; 20000 nM) | level (log10) ([5]; 60000 nM) | level (log10) ([6]; 1500 nM) | level (log10) ([6]; 4400 nM) | level (log10) ([6]; 13000 nM) | level (log10) ([6]; 40000 nM) |
| --- | --- | --- | --- | --- | --- | --- | --- | --- | --- | --- | --- | --- | --- | --- | --- | --- | --- | --- |
| BF4T:CCL2/MCP-1 | -0.004 ± 0.014 | -0.009 ± 0.027 | -0.0295 ± 0.015 | 0.001 ± 0.013 | -0.0615 ± 0.023 | -0.105 ± 0.03 | -0.162 ± 0.02 | -0.2635 ± 0.0021 | 0.038 ± 0.028 | -0.0205 ± 0.021 | -0.378 ± 0.021 | 0.006 ± 0.0071 | -0.0425 ± 0.0064 | -0.0055 ± 0.037 | 0.0015 ± 0.011 | 0.008 ± 0.018 | 0.0125 ± 0.043 | 0.051 ± 0.0042 |
| BF4T:CCL26/Eotaxin-3 | -0.0275 ± 0.026 | -0.0245 ± 0.0021 | -0.0055 ± 0.053 | -0.006 ± 0.0071 | -0.055 ± 0.0042 | -0.0525 ± 0.0092 | -0.122 ± 0.014 | -0.234 ± 0.018 | -0.0515 ± 0.0064 | -0.142 ± 0.011 | -0.326 ± 0.051 | -0.0265 ± 0.021 | 0.0035 ± 0.016 | -0.014 ± 0.016 | -0.0815 ± 0.026 | -0.131 ± 0.0078 | -0.23 ± 0.066 | -0.298 ± 0.013 |
| BF4T:CD90 | -0.01 ± 0.0085 | -0.004 ± 0.0071 | 0.011 ± 0.018 | -0.0145 ± 0.015 | -0.0075 ± 0.0021 | -0.013 ± 0.0042 | -0.0485 ± 0.028 | -0.0995 ± 0.029 | 0.0005 ± 0.00071 | -0.019 | -0.028 ± 0.038 | -0.0065 ± 0.0078 | -0.014 ± 0.0057 | 0.0065 ± 0.0021 | -0.0085 ± 0.012 | -0.0055 ± 0.005 | -0.0065 ± 0.0035 | 0.002 ± 0.0057 |
| BF4T:CD106/VCAM-1 | -0.034 ± 0.0057 | -0.034 ± 0.017 | 0.008 ± 0.069 | -0.015 ± 0.059 | -0.0485 ± 0.03 | -0.014 ± 0.017 | -0.062 ± 0.0057 | -0.148 ± 0.079 | -0.0255 ± 0.029 | -0.04 ± 0.028 | -0.126 ± 0.088 | -0.007 | -0.0355 ± 0.0021 | -0.044 ± 0.031 | -0.0095 ± 0.021 | -0.0125 ± 0.069 | -0.096 ± 0.035 | -0.106 ± 0.028 |
| BF4T:CXCL8/IL-8 | -0.0295 ± 0.013 | -0.027 ± 0.0028 | -0.0105 ± 0.021 | 0.055 ± 0.021 | 0.028 ± 0.057 | 0.0235 ± 0.088 | 0.0575 ± 0.019 | 0.0005 ± 0.026 | 0.002 ± 0.024 | 0.0225 ± 0.012 | -0.009 ± 0.018 | 0.0175 ± 0.011 | 0.015 ± 0.0028 | 0.0355 ± 0.005 | 0.0305 ± 0.069 | 0.034 ± 0.0099 | 0.0995 ± 0.021 | 0.136 ± 0.0057 |
| BF4T:IL-1alpha | -0.007 ± 0.014 | -0.0135 ± 0.015 | 0.0105 ± 0.049 | -0.017 ± 0.0042 | -0.0035 ± 0.028 | -0.003 ± 0.0014 | 0.025 ± 0.027 | -0.0955 ± 0.026 | -0.0015 ± 0.0092 | -0.0045 ± 0.005 | -0.0925 ± 0.005 | -0.0005 ± 0.0064 | -0.0015 ± 0.00071 | 0.0155 ± 0.021 | 0.037 ± 0.034 | -0.0165 ± 0.033 | 0.0095 ± 0.011 | -0.0155 ± 0.0064 |
| BF4T:Keratin 8/18 | -0.0075 ± 0.0064 | -0.019 ± 0.013 | 0.015 ± 0.03 | -0.008 ± 0.013 | -0.0145 ± 0.015 | -0.0305 ± 0.042 | -0.0025 ± 0.011 | -0.062 ± 0.0085 | 0.0075 ± 0.00071 | 0.0125 ± 0.00071 | -0.0805 ± 0.035 | 0.0285 ± 0.033 | 0.003 ± 0.016 | 0.0335 ± 0.0092 | 0.02 ± 0.0071 | 0.005 ± 0.023 | -0.0175 ± 0.015 | -0.044 ± 0.023 |
| BF4T:MMP-1 | -0.009 ± 0.0071 | -0.0005 ± 0.00071 | 0.01 ± 0.011 | -0.009 ± 0.0042 | -0.0005 ± 0.013 | -0.01 ± 0.0099 | -0.0115 ± 0.013 | 0.0005 ± 0.026 | 0.008 ± 0.016 | 0.025 ± 0.014 | -0.042 ± 0.0071 | -0.0075 ± 0.00071 | -0.0115 ± 0.005 | 0.001 ± 0.0071 | 0.009 ± 0.013 | -0.0095 ± 0.0078 | 0.001 ± 0.0014 | 0.0245 ± 0.005 |

Reference: the supplement of paper PMC10331698
